Laboratory results taken from patent US20210213120A1, “KRAS PEPTIDE VACCINE COMPOSITIONS AND METHOD OF USE” (THE MEDICAL COLLEGE OF WISCONSIN , INC., priority 2017, published 2021).
No end group written: not given here.

Columns and labels:
[1] = tested on: tumor infiltrated CD8+ cells and Tregs; experiment: T cells in spleen or tumor of K-rasLA1 mice; format: in vivo, mouse; conditions: 4~5 weeks after treatment
Protocol: FIG. 8. UAB30 increased tumor infiltrated CD8+ cells and decreased Tregs in tumor. K-rasLA1 mice were treated with control, Kras-vaccine, UAB30 alone or Kras-vaccine and UAB30 and the % CD4+ or CD8+ T cells were assessed in the spleen or tumor of mice at 4˜5 weeks after treatment.
K-rasLA1 mouse develops premalignant lung lesions that progress to multifocal lung adenocarcinomas due to somatic mutations in K-ras, which occurs at the birth of these mice through DNA recombination. […] In this model, vaccination was given when mice were 8˜10 weeks old, at which numerous pleural lesions already formed in lung, yet K-ras vaccination alone significant inhibited lung tumor multiplicity and load in K-rasLA1 mice, decreased tumor numbers from ˜12 to ˜7 per mouse, and tumor load from ˜55 mm3 to ˜30 mm3 (FIG. 7).

[2] = tested on: K-ras-driven lung cancer syngraft; experiment: K-ras-driven lung cancer syngraft tumor model (avasimibe combination); format: in vivo, mouse; conditions: tumor volume over time
Protocol: FIG. 10. K-ras vaccine synergize with Avasamibe to inhibit lung tumor progression in K-ras-driven lung cancer syngraft tumor model.
Mice were treated with the combination of K-ras multi-peptide vaccine with avasimibe in a K-ras-driven lung cancer syngraft model. Tumor volume was assessed over time post tumor cell inoculation.
Therefore, we tested the combination of K-ras multi-peptide vaccine with avasimibe in a K-ras-driven lung cancer syngraft model.

[3] = Immune response to KRAS peptides (Table 1)
[4] = tested on: IFN-γ response; experiment: IFN-γ ELISPOT of PD-1 and PD-L1 peptides in naïve mice; format: in vivo, mouse
Protocol: The immunogenicity of PD-1 and PD-L1 were tested in naïve mice using the IFN-γ ELISPOT assay. (P<0.0001, data not shown)
Cancer cells are naturally attacked by cells of the immune system, but can induce a state of tolerance whereby they escape from immune attack, for which immune checkpoint proteins such as PD1, VISTA are important ones mediating this immune escape. Interaction of PD-1 on activated T cells and PD-L1 on cancer cells lead to inhibition of the cytotoxic T cells. Investigators have recently identified spontaneous T cell reactivity against PD-L1 in the tumor microenvironment and in the peripheral blood of patients with metastatic melanoma and healthy donors, PD-L1 reactive CD8 T cells are cytotoxic and can kill cancer cells and immune regulatory cells in vitro, and responsive PD-L1 peptide vaccine has therefore under development. Here, by using a multi-scoring system that combines multiple MHC class II peptide binding algorithms, we identified immunogenic “hotspots”, and selected 7 peptides for PD-L1 and 11 peptides for PD-1 from these immunogenic “hot” regions (see Table 3). We then tested their immunogenicity in naïve mice using the IFN-γ ELISPOT assay.

[5] = tested on: IFN-γ-secreting splenocytes; experiment: IFN-γ ELISPOT screen of single KRAS peptides in naïve mice; format: in vivo, mouse; conditions: for IFN-γ response (ELISPOT): naïve mice vaccinated with single KRAS peptide; for IFN-γ response (ELISPOT) / mean IFN-γ-secreting cells: splenocytes pulsed 72 h
Text: FIG. 1A-1C. In vivo screen for peptide candidates by ELISPOT in naïve mice. (A) Immunogenic heatmap for identifying peptides associated with highest binding affinity across multiple MHC class II alleles. Colors represent percentile to highest score from three algorithms for each amino acid from dark red to light blue in the order of rank scores. Color strata are as follows: dark red ≥75% of the highest score; red=50˜75% of the highest score; orange=40˜50% of highest score; yellow=30˜40% of the highest score; green=20˜30% of the highest score; blue ≤20% of the highest score. (B) Representative ELISPOT results showing T cell responses to specific KRAS peptides from mouse splenocytes stimulated with no antigen (first row), negative control peptide (HIV peptide, second row), target peptide (third row), or positive control ConA (fourth row). (C) Quantified ELISPOT results. Then, splenocytes were collected and pulsed with no antigen control, each single KRAS peptide, or negative control peptide (HIV peptide), or positive control ConA. After 72 h of incubation, the ELISPOT assay was performed, plates were scanned, and spot numbers were statistically analyzed. Open bar, ELISPOT reads from KRAS peptide vaccinated animals pulsed with specific KRAS peptide; blue bar, ELISPOT reads from animals injected only with adjuvant and pulsed with specific KRAS peptide; black bar, ELISPOT reads from three most significant KRAS peptide vaccinated animals. Data are shown as the mean±SE of three replicate wells per group, n=5.
Mice were vaccinated with 50 μg of each peptide. Phosphate buffered saline (PBS) was added to bring the total volume to 50 μL/mouse. An equal amount of adjuvant (Complete Freund's Adjuvant or Incomplete Freund's Adjuvant) was added to bring the total volume to 100 μL/mouse. Mice were injected subcutaneously on the shoulder at 7 weeks of age, and boosting vaccination was given every two weeks for the first three boosting and every 4 weeks for the last three boosting as shown in FIG. 2A. Transgene Kras was initiated with Dox diet (625 mg/kg diet) one week after the fourth vaccination, and Dox diet was given throughout of the study.
(§1) Cell suspensions from whole spleens were filtered through a 70 μm cell strainer (BD) and subjected to red blood cell lysis using ACK lysis buffer. 1.5˜3.0×10^4 cells were plated into individual wells of a MAIPS4510 Multiscreen 96 well plate previously coated with anti-interferon γ […] antibody and containing media with either peptide, positive control (concanavalin A) or negative control (HIV peptide, or no antigen). After 72 hours, plates were washed and a secondary antibody (BD) was added and incubated on the plate overnight at 4 degrees Celsius. Wells were then washed with PBS and HRP streptavidin was added. Following 1 h incubation, the plate was developed using AEC substrate for between 5-25 minutes. The plate was subsequently gently washed under cold running tap water. When dry, an automated plate reader system (CTL Technologies) was used to image the plates and quantify spot number.
Using a multi-scoring system that combines multiple MHC class II peptide binding algorithms, immunogenic “hotspots” were identified; 11 peptides (Table 2) were selected; their immunogenicity was evaluated in naïve mice using the IFN-γ ELISPOT assay as previously reported. The KRAS 17-mer peptide (p5-21) that covers the mutation in codon 12, and its G12D mutant (p5-21 G12D) were also selected as robust peptides to stimulate immune response. […] To include peptides against both wild-type and mutant KRAS, also based on a high degree of homology between human and mouse KRAS, peptides p5-21 (SEQ ID NO:2), p5-21 G12D (SEQ ID NO:1), p17-31 (SEQ ID NO:4), and p78-92 (SEQ ID NO:6) were chosen to formulate a multipeptide KRAS vaccine in the preventive efficacy study.

[6] = tested on: IFN-γ-secreting splenocytes; experiment: IFN-γ ELISPOT of splenocytes from vaccinated CCSP-KRAS^G12D mice at end of study (epitope spreading); format: in vivo, mouse; conditions: for mean IFN-γ-secreting cell responses: splenocytes of mice vaccinated with KRAS combination vaccine, pulsed with the named peptide(s) 72 h
Protocol: FIG. 3. Epitope spreading tested by IFN-γ ELISPOT. Mice were vaccinated with the KRAS combination vaccine (p5-21, p5-21 G12D, p17-31, and p78-92). Then splenocytes were collected and pulsed with KRAS combo peptides, each single KRAS peptide, unvaccinated KRAS peptide p75-89, combo IGFR peptides, or Tert peptide. After 72 h of incubation, the ELISPOT assay was performed, plates were scanned, and spot numbers were statistically analyzed.
as §1
In order to examine the specific immunity that confers the protective effect of the KRAS vaccine, an IFN-γELISPOT assay of splenocytes isolated from adjuvant alone and vaccinated CCSP-KRAS^G12D mice was performed at the end of the study. […] The mean IFN-γ-secreting cell responses were 216 in the pooled KRAS peptides group, and 36, 40, 116, and 52 to individual peptides p5-21, p5-21 G12D, p17-31, and p78-92, respectively. […] There was no evidence of general immune hyperactivity stimulation as none of the animals responded to an irrelevant naïve antigen, further supporting the notion that the immune response detected in the vaccinated group was highly specific to the KRAS vaccine.

Q: For `CC(=C/C=C/C(C)=C/C(=O)O)/C=C1\CCCc2ccccc21` [UAB30], which Tregs in tumors [1] is on record?
A: decreased

Q: And the “infiltrated CD8+ cells in tumors” value [1]?
A: significantly increased

Q: Which tumor growth inhibition [2] does the source give for `CC(C)c1cc(C(C)C)c(CC(=O)NS(=O)(=O)Oc2c(C(C)C)cccc2C(C)C)c(C(C)C)c1` [avasimibe] here?
A: effective in inhibiting tumor growth

Q: Which Immune response [3] does the source give for AGGVGKSALTIQLLQNHFVDE [p11s] here?
A: Yes

Q: Which Immune response [3] does the source give for AGGVGKSALTIQLLQNHFVDEYD [p11] here?
A: Yes

Q: For CHLLRAFTITAPKDL [mPDL1-13], which “IFN-γ response, peptides against PD-L1” value [4] is on record?
A: strongest IFN-γ response

Q: For DAFYTLVREIRKHKE [p154-168], which “IFN-γ response (ELISPOT)” value [5] is on record?
A: much weaker response

Q: Which Immune response [3] does the source give for FLCVFAINNTKSFED [p78-92] here?
A: Yes

Q: And the “IFN-γ response (ELISPOT)” value [5]?
A: strongest IFN-γ response

Q: And the “mean IFN-γ-secreting cell responses” value [6]?
A: 52

Q: What does the source list for FYTLVREIRKHKEKM [p156-170]?
A: Immune response [3]: Yes; IFN-γ response (ELISPOT) [5]: strongest IFN-γ response

Q: For GEGFLCVFAINNTKS [p75-89], which “IFN-γ response (ELISPOT)” value [5] is on record?
A: much weaker response

Q: What about the “IFN-γ response to non-vaccine KRAS peptide” value ([6]; splenocytes of vaccinated animals) of the same compound?
A: strong response

Q: What does the source list for KLVVVGADGVGKSALTI [p5-21 G12D]?
A: Immune response [3]: Yes; mean IFN-γ-secreting cells ([5]; naïve mice): around 100 spots per well (SPW); mean IFN-γ-secreting cell responses [6]: 40

Q: With KLVVVGAGGVGKSAL [p5-19] as the compound, how does the “response relative to p5-21” value ([5]; IFN-γ ELISPOT, naïve mice) read?
A: less than 50%

Q: With KLVVVGAGGVGKSALTI [p5-21] as the compound, how does the Immune response [3] read?
A: Yes

Q: What about the “IFN-γ response (ELISPOT)” value [5] of the same compound?
A: strongest IFN-γ response

Q: And the “mean IFN-γ-secreting cells” value ([5]; naïve mice)?
A: around 100 spots per well (SPW)

Q: What about the “mean IFN-γ-secreting cell responses” value [6] of the same compound?
A: 36

Q: For KLVVVGAVGVGKSALTI [P5-21G12V], which Immune response [3] is on record?
A: Yes

Q: Which “IFN-γ response, peptides for PD-1” value [4] does the source give for LAVFCSTSMSEARGA [mPD1-193] here?
A: strongest IFN-γ response

Q: Which results are given for LPATHPPQNRTHWVL [mPDL1228]?
A: IFN-γ response, peptides against PD-L1 [4]: strongest IFN-γ response; IFN-γ response, peptides for PD-1 [4]: strongest IFN-γ response

Q: With PQHSNFRGRASLPKD [mPDL1-76] as the compound, how does the “IFN-γ response, peptides against PD-L1” value [4] read?
A: strongest IFN-γ response

Q: For QDARFQIIQLPNRHD [mPD1-94], which “IFN-γ response, peptides for PD-1” value [4] is on record?
A: strongest IFN-γ response

Q: For SALTIQLIQNHFVDE [p17-31], which Immune response [3] is on record?
A: Yes

Q: And the “IFN-γ response (ELISPOT)” value [5]?
A: strongest IFN-γ response

Q: And the “mean IFN-γ-secreting cell responses” value [6]?
A: 116

Q: Which “IFN-γ response, peptides for PD-1” value [4] does the source give for SWQSGWLLEVPNGPW [mPD1-21] here?
A: strongest IFN-γ response

Q: For “TgegFLCVFAINNTKSFED (TGEGFLCVFAINNTKSFED) [P75]”, which Immune response [3] is on record?
A: Yes

Q: Which Immune response [3] does the source give for VGAGGVGKSALTIQLLQNHFVDEYD [p9] here?
A: Yes

Q: Which Immune response [3] does the source give for “kSALTIQLIQNHFVDEyd (KSALTIQLIQNHFVDEYD; not fully specified (residues 1, 17, 18); printed as kSALTIQLIQNHFVDEyd) [P16]” here?
A: Yes
